Literature values in patent US12485291B2, “Method for treatment of cholangiocarcinoma with cold atmospheric plasma and folfirinox” (Jerome Canady Research Institute for Advanced Biological …, priority 2019, dated 2025).

Test system: metastatic pancreatic cancer
Settings: patients with metastatic pancreatic cancer

Nc1ccn([C@@H]2O[C@H](CO)[C@@H](O)C2(F)F)c(=O)n1 [gemcitabine]
overall survival: 6.8 months
